Assay results as given in patent US11370763B2, “Compounds and compositions for treating conditions associated with NLRP activity” (Novartis AG, priority 2017, dated 2022).

test system: IL-1β production in PMA-differentiated THP-1 cells; assay: IL-1β production in PMA-differentiated THP-1 cells stimulated with gramicidin (hTHP-1 assay containing 2% fetal bovine serum; Procedures 1-3); format: cell-based, human; settings: Homo sapiens, THP-1, hTHP-1 assay containing 2% fetal bovine serum; class symbols; read-out: hTHP-1 IC50 (Average IC50 of compounds in hTHP-1 assay)
Method: The following protocol is suitable for testing the activity of the compounds disclosed herein.
Procedure 1: IL-1β Production in PMA-Differentiated THP-1 Cells Stimulated with Gramicidin
THP-1 cells were purchased from the American Type Culture Collection and sub-cultured according to instructions from the supplier. Cells were cultured in complete RPMI 1640 (containing 10% heat inactivated FBS, penicillin (100 units/ml) and streptomycin (100 μg/ml)), and maintained in log phase prior to experimental setup. Prior to the experiment, compounds were dissolved in dimethyl sulfoxide (DMSO) to generate a 30 mM stock. The compound stock was first pre-diluted in DMSO to 3, 0.34, 0.042 and 0.0083 mM intermediate concentrations and subsequently spotted using Echo550 liquid handler into an empty 384-well assay plate to achieve desired final concentration (e.g. 100, 33, 11, 3.7, 1.2, 0.41, 0.14, 0.046, 0.015, 0.0051, 0.0017 μM). DMSO was backfilled in the plate to achieve a final DMSO assay concentration of 0.37%. The plate was then sealed and stored at room temperature until required.
THP-1 cells were treated with PMA (Phorbol 12-myristate 13-acetate) (20 ng/ml) for 16-18 hours. On the day of the experiment the media was removed and adherent cells were detached with trypsin for 5 minutes. Cells were then harvested, washed with complete RPMI 1640, spun down, and resuspended in RPMI 1640 (containing 2% heat inactivated FBS, penicillin (100 units/ml) and streptomycin (100 μg/ml). The cells were plated in the 384-well assay plate containing the spotted compounds at a density of 50,000 cells/well (final assay volume 50 μl). Cells were incubated with compounds for 1 hour and then stimulated with gramicidin (5 μM) (Enzo) for 2 hours. Plates were then centrifuged at 340 g for 5 min. Cell free supernatant (40 μL) was collected using a 96-channel PlateMaster (Gilson) and the production of IL-1β was evaluated by HTRF (cisbio). The plates were incubated for 18 h at 4° C. and read using the preset HTRF program (donor emission at 620 nm, acceptor emission at 668 nm) of the SpectraMax i3x spectrophotometer (Molecular Devices, software SoftMax 6). A vehicle only control and a dose titration of CRID3 (100-0.0017 μM) were run concurrently with each experiment.
Procedure 2: IL-1β Production in PMA-Differentiated THP-1 Cells Stimulated with Gramicidin
THP-1 cells were purchased from the American Type Culture Collection and sub-cultured according to instructions from the supplier. Prior to experiments, cells were cultured in complete RPMI 1640 (containing 10% heat inactivated FBS, penicillin (100 units/ml) and streptomycin (100 μg/ml)), and maintained in log phase prior to experimental setup. Prior to the experiment THP-1 were treated with PMA (Phorbol 12-myristate 13-acetate) (20 ng/ml) for 16-18 hours. Compounds were dissolved in dimethyl sulfoxide (DMSO) to generate a 30 mM stock. On the day of the experiment the media was removed and adherent cells were detached with trypsin for 5 minutes. Cells were then harvested, washed with complete RPMI 1640, spun down, resuspended in RPMI 1640 (containing 2% heat inactivated FBS, penicillin (100 units/ml) and streptomycin (100 μg/ml). The cells were plated in a 384-well plate at a density of 50,000 cells/well (final assay volume 50 μl). Compounds were first dissolved in assay medium to obtain a 5× top concentration of 500 μM. 10 step dilutions (1:3) were then undertaken in assay medium containing 1.67% DMSO. 5× compound solutions were added to the culture medium to achieve desired final concentration (e.g. 100, 33, 11, 3.7, 1.2, 0.41, 0.14, 0.046, 0.015, 0.0051, 0.0017 μM). Final DMSO concentration was at 0.37%. Cells were incubated with compounds for 1 hour and then stimulated with gramicidin (5 μM) (Enzo) for 2 hours. Plates were then centrifuged at 340 g for 5 min. Cell free supernatant (40 μL) was collected using a 96-channel PlateMaster (Gilson) and the production of IL-1β was evaluated by HTRF (cisbio). […]

Compared with CC(C)c1cc2c(c(C(C)C)c1CC(=O)N=S(N)(=O)c1cc(C(C)(C)O)cs1)COC2 (stereo not drawn) [Example 220, N-(amino(4-(2-hydroxypropan-2-yl)thiophen-2-yl)(oxo)-λ^6-sulfaneylidene)-2-(4,6-diisopropyl-1,3-dihydroisobenzofuran-5-yl)acetamide], COCc1cc(C(C)C)c(CC(=O)N=S(N)(=O)c2cc(C(C)(C)O)cs2)c(C(C)C)n1 (stereo not drawn) [Example 152, N-(amino(4-(2-hydroxypropan-2-yl)thiophen-2-yl)(oxo)-λ^6-sulfaneylidene)-2-(2,4-diisopropyl-6-(methoxymethyl)pyridin-3-yl)acetamide] is higher in IC50: 40 to 200 nM for the first, 200 to 1000 nM for the second. The first is the more potent here.

CC(C)c1c(F)c(Cl)cc(C2CC2)c1CC(=O)N=S(N)(=O)c1cnc(C(C)(C)O)s1 (stereo not drawn) [Example 104, N-(amino(2-(2-hydroxypropan-2-yl)thiazol-5-yl)(oxo)-λ^6-sulfaneylidene)-2-(4-chloro-6-cyclopropyl-3-fluoro-2-isopropylphenyl)acetamide] and CC(C)c1cc(-c2ccc3c(c2)OC(F)(F)O3)cc(C(C)C)c1CC(=O)N=S(N)(=O)c1cnc(C(C)(C)O)s1 (stereo not drawn) [Example 118, N-(amino(2-(2-hydroxypropan-2-yl)thiazol-5-yl)(oxo)-λ^6-sulfaneylidene)-2-(4-(2,2-difluorobenzo[d][1,3]dioxol-5-yl)-2,6-diisopropylphenyl)acetamide] fall in the same range of IC50: 200 to 1000 nM for the first, 200 to 1000 nM for the second.

First: CC(C)c1cc(-c2ccc3ccccc3c2)cc(C(C)C)c1CC(=O)N=S(N)(=O)c1cnc(C(C)(C)O)s1 (stereo not drawn) [Example 113, N-(amino(2-(2-hydroxypropan-2-yl)thiazol-5-yl)(oxo)-λ^6-sulfaneylidene)-2-(2,6-diisopropyl-4-(naphthalen-2-yl)phenyl)acetamide]
Second: COCc1cc(C(C)C)c(CC(=O)N=S(N)(=O)c2sc(C(C)(C)O)nc2CO)c(C(C)C)c1 (stereo not drawn) [Example 24, 2-(2,6-diisopropyl-4-(methoxymethyl)phenyl)-N-(4-(hydroxymethyl)-2-(2-hydroxypropan-2-yl)thiazole-5-sulfonimidoyl)acetamide]
The IC50 of the first is lower: 8 to 40 nM for the first, 200 to 1000 nM for the second. The first is the more potent here.

CC(C)c1cc(F)cc(C(C)C)c1CC(=O)N[S@](=N)(=O)c1ncc(C(C)(C)O)s1 (single isomer, unassigned) [Example 8] showed an IC50 of 1000 to 5000 nM.

same assay, conditions: Homo sapiens, THP-1, hTHP-1 assay containing 2% fetal bovine serum; given as numeric bound; read-out: hTHP-1 IC50 (Average IC50 of compounds in hTHP-1 assay)

CC(C)c1cc2c(c(C(C)C)c1CC(=O)N=S(N)(=O)c1cnc(C(C)(C)O)s1)CCC2 (single isomer, unassigned) [Example 212, (R) or (S)-N-(amino(2-(2-hydroxypropan-2-yl)thiazol-5-yl)(oxo)-λ^6-sulfaneylidene)-2-(4,6-diisopropyl-2,3-dihydro-1H-inden-5-yl)acetamide] and CC(C)(O)c1ncc(S(N)(=O)=NC(=O)Cc2cc3c(c4c2CCC4)CCC3)s1 (stereo not drawn) [Compound 259] cannot be ordered by IC50: greater than 30000 nM for the first, greater than 17000 nM for the second.

Work on CC(C)c1ncc(F)c(C(C)C)c1CC(=O)N=S(N)(=O)c1ncc(C(C)(C)O)s1 (single isomer, unassigned) [Example 205, (S) or (R)-N-(amino(5-(2-hydroxypropan-2-yl)thiazol-2-yl)(oxo)-λ^6-sulfaneylidene)-2-(5-fluoro-2,4-diisopropylpyridin-3-yl)acetamide] yielded an IC50 greater than 30000 nM.

same assay, conditions: hTHP-1 assay containing 2% fetal bovine serum; class symbols; read-out: hTHP-1 IC50 (Average IC50 of compounds in hTHP-1 assay)

COCc1cc(C(C)C)c(CC(=O)N=S(N)(=O)c2sc(C(C)(C)O)nc2CO)c(C(C)C)c1 (single isomer, unassigned) [Example 68, (S)- or (R)-2-(2,6-diisopropyl-4-(methoxymethyl)phenyl)-N-(4-(hydroxymethyl)-2-(2-hydroxypropan-2-yl)thiazol-5-ylsulfonimidoyl)acetamide] and CCc1cc(OC(F)F)cc(C(C)C)c1CC(=O)N=S(N)(=O)c1sc(C(C)(C)O)cc1F (single isomer, unassigned) [Example 78, (S)- or (R)-2-(4-(difluoromethoxy)-2-ethyl-6-isopropylphenyl)-N-(3-fluoro-5-(2-hydroxypropan-2-yl)thiophen-2-ylsulfonimidoyl)acetamide] fall in the same range of IC50: 200 to 1000 nM for the first, 200 to 1000 nM for the second.
